We go through one compound from the NIST ThermoML archive (doi:10.1016/j.jct.2018.08.021).

The nature of this data set: osmotic coefficient (dimensionless); mn = molality of the nth substance listed, in mol/kg. To be noted: 303.15 K, 101.3 kPa, Liquid, Vapor-pressure osmometry (Knauer K-7000).

± gives the expanded uncertainty stated by the source.

`NC(=O)c1ccc[n+]([C@@H]2O[C@H](COP(=O)([O-])OP(=O)(O)OC[C@H]3O[C@@H](n4cnc5c(N)ncnc54)[C@H](O)[C@@H]3O)[C@@H](O)[C@H]2O)c1` [β-nicotinamide adenine dinucleotide] + O: the osmotic coefficient (m1 = 0.0476) was determined as 0.809 ± 0.064, the osmotic coefficient (m1 = 0.0572) was determined as 0.804 ± 0.065, the osmotic coefficient (m1 = 0.0765) turned out to be 0.771 ± 0.066 and the osmotic coefficient (m1 = 0.0951) was found to be 0.73 ± 0.067.
